Assay type in all cases: cell-based, human
One experiment concerns Egr1. Put plainly: Immunoblot analysis of Egr1 expression in HEL cells. The settings on record: PMA 100 nM, 0-48 h. Background: A western blot detects proteins with antibodies after separation by electrophoresis.
A further experiment has as its system WT1. Put plainly: Immunoblot analysis of WT1 expression in HEL cells. The settings on record: PMA 100 nM over 48 h. As for the experimental part: (§1) The expression of WT1, Sp1, Egr1, NF-E2, GATA-1 and Ets-1 proteins in HEL cells was confirmed by western blot analysis. Briefly, whole cell protein was resolved by SDS-PAGE (10% acrylamide gels) and transferred to polyvinylidene difluoride (PVDF) membrane according to standard methodology. Membranes were screened using anti-WT1, anti-NF-E2, anti-Sp1, anti-Egr1, anti-GATA-1 or anti-Ets-1 sera in 5% non fat dried milk in 1×TBS (0.01 M Tris/HCl, 0.1 M NaCl) for 2 h at room temperature followed by washing and screening using goat anti-rabbit horseradish peroxidase (sc-2204) followed by chemiluminescence detection, as described by the supplier (Roche Applied Science). For PMA studies, HEL cells were pre-incubated for the indicated amount of time with 100 nM PMA, with 10 μM PD98059, with 100 nM PMA plus 10 μM PD98059 or, as a control, with vehicle [0.1% (v/v) DMSO]. Whole cell protein (60 μg per lane) was resolved by SDS-PAGE (10% acrylamide gels) and transferred to polyvinylidene difluoride (PVDF) membrane according to standard methodology. […] Cells were harvested 48 hr post-transfection and aliquots ([…]) were analysed by SDS-PAGE/western blot analysis. As a positive control for hTF expression, […] of a commercial control Tissue-Factor Biomass was also analysed. […]

Another experiment concerns Sp1. Briefly: Immunoblot analysis of Sp1 expression in HEL cells. Conditions: PMA 100 nM over 48 h. As for the experimental part: as §1
The subject of experiment [1] is −8460 to −8006 region of Prm1. Briefly: ChIP analysis of WT1, Egr1 and Sp1 binding to Prm1 in PMA-treated HEL cells. The settings on record: PMA 100 nM for 5, 8 or 16 h. As for the experimental part: Chromatin immunoprecipitation (ChIP) assays were performed essentially as described (Koch et al., 2007). Specifically, HEL cells (1×10^8) were pelleted, washed in ice-cold PBS and resuspended in serum-free RPMI 1640. Formaldehyde-cross linked chromatin was sonicated, as described (Koch et al., 2007), to generate fragments 500 bp to 1000 bp in length. Prior to immunoprecipitation (IP), chromatin was incubated with 60 μg normal rabbit IgG overnight at 4° C. on a rotisserie, after which 250 μl of salmon sperm DNA/protein A agarose beads (Millipore) were added and chromatin was precleared for 3 h at 4° C. with rotation. Thereafter, anti-WT1, anti-NF-E2, anti-Sp1, anti-Egr1, anti-GATA-1, anti-Ets-1 ([…]), normal rabbit IgG (10 μg), or a “no antibody” control were used for immunoprecipitation. Following elution, cross-links were reversed by incubation at 65° C. overnight followed by protease digestion with proteinase K (Sigma; 9 μl of 10 mg/ml) at 45° C. for 7 h. After precipitation, samples were resuspended in 50 μl dH2O. PCR analysis was carried out using 2-3 μl of ChIP sample as template or, as a positive control, with an equivalent volume of a 1:20 dilution of the input chromatin DNA. The identities of the primers used for the ChIP PCR reactions, as well as their sequences and corresponding nucleotides within Prm1 are listed below. […]

A further experiment has as its system TPα mRNA. Put plainly: RT-PCR and Southern blot analysis of TPα mRNA expression in HEL cells. The settings on record: PMA 100 nM, 2 to 48 h. As for the experimental part:
Total RNA was isolated from HEL 92.1.7 cells (5×10^6 approximately) using TRIzol reagent (Invitrogen Life Technologies). RT-PCR was carried out with DNase 1-treated total RNA using oligonucleotide primers to specifically amplify TPα and glyceraldehyde-3-phosphate dehydrogenase (GAPDH) mRNA sequences, as previously described (Miggin et al., 1998). The following primers were used: […]
Following agarose gel electrophoresis, PCR products were transferred to Biodyne® B positively-charged nylon membrane (PaII) using standard methodology (Sambrook et al., 1989). Southern blot analysis of the RT-PCR products was carried out using oligonucleotide probes (5′ end-labelled with biotin) specific for TPα (Kin 583: 5′[Btn][…] GAAG3′, SEQ ID NO:80) and GAPDH (Kin 584: 5′[Btn][…]3′, SEQ ID NO:81] mRNA sequences and detection was carried out using the Detector™ HRP Chemiluminescent Blotting Kit (KPL), as described by the manufacturer.

As to `CCCCCCCCCCCCCC(=O)O[C@@H]1[C@@H](C)[C@@]2(O)[C@@H](C=C(CO)C[C@]3(O)C(=O)C(C)=C[C@@H]23)[C@@H]2C(C)(C)[C@]12OC(C)=O` [PMA, phorbol 12-myristate 13-acetate], the Egr1 protein expression result with Egr1 was “significant increase in Egr1 expression from 1 to 16 h”. Besides, the WT1 protein expression entry in the experiment with WT1 was “did not substantially alter the expression of the WT1 doublet”. Moreover, the Sp1 protein expression entry with Sp1 is “did not result in appreciable changes in the expression of Sp1”. For the same compound, the “Binding of WT1, Egr1 and Sp1 to Prm1 chromatin” value in experiment [1] is on record as “substantial changes in the pattern of binding of these factors to distal upstream GC-enriched elements”. Moreover, the “TPα mRNA expression” value with TPα mRNA is “time-dependent, sustained increase in TPα mRNA expression”.

Source of the values: patent US20110269825A1, “Modified Thromboxane A2 Receptor Promoter Sequence” (priority 2008, published 2011).
